# Assay results as given in patent US20240287054A1, “COMPOUNDS THAT BIND NON-CANONICAL G-QUADRUPLEX STRUCTURES AND METHODS OF MAKING AND USING THE SAME” (The U.S.A., as Represented by the Secretary, Department of …, priority 2021, published 2024).
# How the values were obtained:
# [1] = system: MYCN G4 DNA; test: Surface plasmon resonance (SPR) with immobilized biotinylated MYCN G4 DNA; format: binding, human
# Method: Surface plasmon resonance (SPR) analysis. The SPR binding assays were performed with a BIAcore 3000 (GE Healthcare) instrument. A CM5 SPR biochip was loaded into the system and primed with running buffer (10 mM Tris, pH7.0, 100 mM KCl, 0.005% Tween 20, 5% DMSO) with a flow rate of 5 μL/min. Then both Flow Cell (Fc) 1 and 2 were activated by EDC/NHS (0.4 M/0.1 M) aqueous solution for 15 min, followed with an injection of streptavidin (SA) solution (0.2 mg/mL in 10 mM sodium acetate buffer, pH4.5) for 30 minutes. After the immobilization amount of SA reached 8,000-10,000 RU, the surface was deactivated by flowing 1 M Ethanolamine aqueous solution (pH 8.5) for 10 min and regenerated with 10 mM NaOH for 2 min to remove the unbound SA. In the meantime, biotinylated MYCN G4 DNA was prepared at 5 μM in the annealing buffer and heated up to 95° C. for 5 min and slowly cooled down. After annealing, a total of 150 μL solution was injected in the Fc 2 of SPR system for 30 min to immobilize DNA onto the chip surface. The small molecule solutions were tested once the baseline was stable.
# To detect the binding signal as well as the binding affinity, a higher flowing rate (25 μL/min) was used in both Fc 1 (reference) and Fc 2 (DNA). Each of the compound solution was prepared at 20× designed the concentrations in DMSO, and then diluted into non-DMSO running buffer, resulting in a final concentration of 5% DMSO. Then, a total of 50 μL compound solution was injected in Fc 1-2 flow path for 120 s for association, followed with 200 s running of buffer for dissociation. An injection of 50 μL regeneration buffer (1 M KCl) could be performed between two samples if necessary. The final binding curve was obtained by reference subtraction. To determine the binding affinity (KD), a series of diluted compound solutions were injected and KD was calculated by BIAevaluation 4.0 software (GE Healthcare) using Langmuir 1:1 binding model.
# In this example, SPR binding assays were performed to analyze binding activity of representative bivalent compounds of the present disclosure. The compounds of this example included a non-canonical binder component and a G4 stacker component. A BIAcore 3000 (GE Healthcare) instrument was used. A CM5 SPR biochip was used and primed with running buffer (10 mM Tris, pH7.0, 100 mM KCl, 0.005% Tween 20, 5% DMSO). To immobilize the compounds onto the chip surface, the flow rate was set as 5 μL/min. Then the carboxylated dextran on the chip surface was activated by EDC/NHS (0.4 M/0.1 M) aqueous solution for 15 min, followed with an injection of streptavidin (SA) solution (0.2 mg/mL in 10 mM sodium acetate buffer, pH 4.5) for 30 minutes. After the immobilization amount of SA, the surface was quenched by injecting 1 M ethanolamine (EA) aqueous solution (pH 8.5) for 10 min and regenerated with 10 mM NaOH for 2 min to remove the physical adsorption. Furthermore, biotinylated MYCN G4 DNA was prepared at 5 μM in the annealing buffer and heated up to 95° C. for 5 min followed with slowly cooling down to room temperature within 1 h. After annealing, a total of 150 μL solution was injected in the Fc 2 of SPR system for 30 min to immobilize DNA onto the chip surface. The compound solutions were then tested once the baseline was stable.
# To detect the binding signal as well as the binding affinity, a higher flowing rate (25 μL/min) was used in both Fc 1 (blank) and Fc 2 (target). Each of the compound solutions was prepared at 20× designed the concentrations in DMSO, and then diluted into non-DMSO running buffer, resulting in a final concentration of 5% DMSO. Then, a total of 50 μL compound solution was injected in Fc 1-2 flow path for 120 s for association, followed with 200 s running of buffer for dissociation. An injection of 50 μL regeneration buffer (1 M KCl) could be performed between two samples if necessary. The final binding curve was obtained by referencing the blank channel (Fc 1). […]
# [2] = system: MYCN G4 DNA; test: Circular dichroism (CD) thermal melting assay of MYCN G4; format: binding, human; details: 10 mM sodium phosphate pH 7.0, 5 mM KCl, 5 μM DNA
# Method: For thermal melt assay, MYCN oligonucleotides were prepared in a low KCl buffer (10 mM Tris, pH7.0, 5 mM KCl) at 5 μM concentration. To test the stabilization effect, G4 samples were incubated with and without 20 μM compound (final solution containing 5% DMSO). Then a total of 300 μL solution was added in a cuvette and heated from 20° C. to 95° C. in a CD spectrometer with an interval of 1° C. To calculate the melting temperature (Tm), the peak of CD spectrum at 263 nm was tracked, and […] vs temperature was plotted and fitted using a nonlinear sigmoidal dose-response model with a variable slope in GraphPad Prism 8 software. The shifting of melting temperature (ΔTm) was calculated using Tm (compound)−Tm (DMSO).
# For CD melting assay, MYCN oligonucleotides were prepared in KCl buffer (10 mM sodium phosphate, pH7.0, 5 mM KCl) at 5 μM concentration. To test the stabilization effect of the compounds, MYCN G4 DNA samples were mixed with/without the compound (final solution containing 5% DMSO) at designed concentration. Then a total of 300 μL solution was added in a cuvette and heated from 20 to 80° C. in a CD spectrometer with an interval of 1° C. To calculate the melting temperature (Tm), the peak of CD spectrum at 263 nm was tracked, and […] vs temperature was plotted and fitted using a nonlinear sigmoidal dose-response model with a variable slope in GraphPad Prism 8 software.
# [3] = system: dsDNA; test: SPR binding to dsDNA; details: up to 5 μM compound injection
# [4] = target: MYCN hairpin-G4 DNA; test: FIA using compound fluorescence (Ex 340/Em 500 nm), titration with unlabeled MYCN G4 DNA; format: binding, human; details: 100 nM compound titrated with folded unlabeled MYCN G4
# Method: In this study, FIA was used for validating the bindings between certain bivalent and MYCN G4 oligos. To measure the binding affinity, a solution of each compound was prepared in triplicate in a 96 well-plate (Costar, black side clear bottom), resulting in a final concentration of 100 nM (5% final DMSO in the working solution). Unlabeled MYCN G4 DNA was folded based on the above-mentioned annealing method, then added into the well plate resulting in different concentrations by a seral dilution. The plate was incubated at room temperature for 30 min, followed by centrifuging at 500 rpm for 2 minutes. The fluorescence intensity was then quantitatively recorded by a Synergy Mx microplate reader (BioTek) at Ex 340 nm/Em 500 nm. The fluorescence intensities were then normalized, and the binding affinity was calculated by fitting the curve using one-site total model in GraphPad Prism 8.3.1 software.
smiles,measurement,setting,value
"COc1ccc2nc3cc(Cl)ccc3c(NCCCNCCCl)c2c1 [Acridine ICR 191, reference compound]",SPR binding kinetics,[1]; MYCN G4 binding curves,fast-on/off
same,Kd,"[1]; MYCN hairpin G4, SPR titration, read-out: KD by SPR",821 ± 184 nM
same,ΔTm of MYCN G4,[2],4.6 °C
same,binding to dsDNA on SPR,[3],dose-dependent binding signals
same,Kd,[4],1040 ± 150 nM
